Data on 23 compounds can be found in patent US11702404B2, “GLP-1R modulating compounds” (priority 2019, dated 2023).

One data set deals with GLP-1R (Homo sapiens, UniProt P43220). The data set is described as follows: GLP-1R activation: cAMP increase in CHO cells stably expressing GLP-1R. It is filed as cell-based. To be noted: cAMP increase, CHO cells stably expressing GLP-1R, 10 point dose response, 30 minutes incubation; read-out: EC50.
The nature of data set [1]: Microsomal stability, human liver microsomes (predicted hepatic clearance). To be noted: predicted from in vitro microsomal stability data.

As usually defined, the EC50 is the concentration giving half of the maximal effect.

Chain of GLP-1R (P43220 24-463): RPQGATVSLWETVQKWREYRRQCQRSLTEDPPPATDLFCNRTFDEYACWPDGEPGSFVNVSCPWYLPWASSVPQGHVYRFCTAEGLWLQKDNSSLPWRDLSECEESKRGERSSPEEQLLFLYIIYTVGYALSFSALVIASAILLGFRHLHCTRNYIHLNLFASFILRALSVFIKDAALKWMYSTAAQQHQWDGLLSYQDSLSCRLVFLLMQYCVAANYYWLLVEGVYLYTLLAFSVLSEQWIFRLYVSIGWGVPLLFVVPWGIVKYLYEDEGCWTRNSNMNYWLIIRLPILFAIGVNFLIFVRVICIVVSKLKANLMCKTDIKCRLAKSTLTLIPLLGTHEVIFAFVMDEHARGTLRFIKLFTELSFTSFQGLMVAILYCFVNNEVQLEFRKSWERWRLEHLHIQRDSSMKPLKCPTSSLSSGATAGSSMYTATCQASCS

On to `CC(C)n1c(Cc2ccc(-c3cccc(OCc4ccc(C#N)cc4F)n3)cc2F)nc2ccc(C(=O)O)cc21` [Example 347, 2-(4-(6-((4-cyano-2-fluorobenzyl)oxy)pyridin-2-yl)-2-fluorobenzyl)-1-isopropyl-1H-benzo[d]imidazole-6-carboxylic acid], for which, on GLP-1R, the EC50 turned out to be 92.6 nM. The “Predicted Hepatic Clearance (Pred. Cl.)” value in data set [1] is 5.5 mL/min/kg.

With `COCCn1c(Cc2ccc(-c3cccc(OCc4cccc5c4OCCO5)n3)cc2F)nc2ccc(C(=O)O)cc21` [Example 348, 2-(4-(6-((2,3-dihydrobenzo[b][1,4]dioxin-5-yl)methoxy)pyridin-2-yl)-2-fluorobenzyl)-1-(2-methoxyethyl)-1H-benzo[d]imidazole-6-carboxylic acid], the EC50 on GLP-1R was 48.1 nM. In data set [1], the “Predicted Hepatic Clearance (Pred. Cl.)” value was 9.5 mL/min/kg.

As to `COCCn1c(Cc2cc(F)c(-c3ccnc(OCc4ccc(C#N)cc4F)n3)cc2F)nc2ccc(C(=O)O)cc21` [Example 349, 2-(4-(2-((4-cyano-2-fluorobenzyl)oxy)pyrimidin-4-yl)-2,5-difluorobenzyl)-1-(2-methoxyethyl)-1H-benzo[d]imidazole-6-carboxylic acid], the EC50 on GLP-1R amounted to 3.05 nM. Further, the “Predicted Hepatic Clearance (Pred. Cl.)” value in data set [1] was below 1.83 mL/min/kg.

On to `N#Cc1ccc(COc2nccc(-c3ccc(Cc4nc5ccc(C(=O)O)cc5n4CC4(CF)CC4)cc3F)n2)c(F)c1` [Example 350, 2-(4-(2-((4-cyano-2-fluorobenzyl)oxy)pyrimidin-4-yl)-3-fluorobenzyl)-1-((1-(fluoromethyl)cyclopropyl)methyl)-1H-benzo[d]imidazole-6-carboxylic acid], for which the EC50 on GLP-1R is 0.79 nM. Moreover, the “Predicted Hepatic Clearance (Pred. Cl.)” value in data set [1] is 6.33 mL/min/kg.

`N#Cc1ccc(COc2nccc(-c3ccc(Cc4nc5ccc(C(=O)O)cc5n4C[C@@H]4CCO4)c(F)c3)n2)c(F)c1` [Example 351, (S)-2-(4-(2-((4-cyano-2-fluorobenzyl)oxy)pyrimidin-4-yl)-2-fluorobenzyl)-1-(oxetan-2-ylmethyl)-1H-benzo[d]imidazole-6-carboxylic acid]: the EC50 at GLP-1R came out at 0.96 nM. For the same compound, the “Predicted Hepatic Clearance (Pred. Cl.)” value in data set [1] was 2 mL/min/kg.

On to `O=C(O)c1ccc2nc(Cc3ccc(-c4cccc(OCc5ccc(Cl)cc5F)n4)cc3F)n(CC3(CF)CC3)c2c1` [Example 352, 2-(4-(6-((4-chloro-2-fluorobenzyl)oxy)pyridin-2-yl)-2-fluorobenzyl)-1-((1-(fluoromethyl)cyclopropyl)methyl)-1H-benzo[d]imidazole-6-carboxylic acid], for which, on GLP-1R, the EC50 came to 1.45 nM. In addition, in data set [1], the “Predicted Hepatic Clearance (Pred. Cl.)” value was below 1.83 mL/min/kg.

With `N#CCC1(Cn2c(Cc3ccc(-c4ccnc(OCc5ccc(C#N)cc5F)n4)cc3F)nc3ccc(C(=O)O)cc32)CC1` [Example 353, 2-(4-(2-((4-cyano-2-fluorobenzyl)oxy)pyrimidin-4-yl)-2-fluorobenzyl)-1-((1-(cyanomethyl)cyclopropyl)methyl)-1H-benzo[d]imidazole-6-carboxylic acid], the EC50 on GLP-1R was determined as 1.67 nM. The “Predicted Hepatic Clearance (Pred. Cl.)” value in data set [1] is below 1.83 mL/min/kg.

Consider `Cn1c(Cc2ccc(-c3cccc(OCc4ccc(C#N)cc4F)n3)cc2F)nc2ccc(C(=O)O)cc21` [Example 354, 2-(4-(6-((4-cyano-2-fluorobenzyl)oxy)pyridin-2-yl)-2-fluorobenzyl)-1-methyl-1H-benzo[d]imidazole-6-carboxylic acid], for which the EC50 at GLP-1R amounted to 146 nM. In addition, the “Predicted Hepatic Clearance (Pred. Cl.)” value in data set [1] was 7.5 mL/min/kg.

Regarding `N#Cc1ccc(COc2cccc(-c3ccc(Cc4nc5ccc(C(=O)O)nc5n4CC4(CF)CC4)c(F)c3)n2)c(F)c1` [Example 355, 2-(4-(6-((4-cyano-2-fluorobenzyl)oxy)pyridin-2-yl)-2-fluorobenzyl)-3-((1-(fluoromethyl)cyclopropyl)methyl)-3H-imidazo[4,5-b]pyridine-5-carboxylic acid], on GLP-1R, the EC50 came out at 0.97 nM. Besides, the “Predicted Hepatic Clearance (Pred. Cl.)” value in data set [1] is 3.3 mL/min/kg.

Consider `N#Cc1ccc(COc2cccc(-c3ccc(Cc4nc5ccc(C(=O)O)cc5n4C4CC4)c(F)c3)n2)c(F)c1` [Example 356, 2-(4-(6-((4-cyano-2-fluorobenzyl)oxy)pyridin-2-yl)-2-fluorobenzyl)-1-cyclopropyl-1H-benzo[d]imidazole-6-carboxylic acid], for which, at GLP-1R, the EC50 came to 48.7 nM. Moreover, in data set [1], the “Predicted Hepatic Clearance (Pred. Cl.)” value is 7.17 mL/min/kg.

Consider `COCCn1c(Cc2ccc(-c3cccc(OCc4ccc(C#N)c5ccccc45)n3)cc2F)nc2ccc(C(=O)O)cc21` [Example 357, 2-(4-(6-((4-cyanonaphthalen-1-yl)methoxy)pyridin-2-yl)-2-fluorobenzyl)-1-(2-methoxyethyl)-1H-benzo[d]imidazole-6-carboxylic acid], for which, at GLP-1R, the EC50 is 56.2 nM. Moreover, the “Predicted Hepatic Clearance (Pred. Cl.)” value in data set [1] is below 1.83 mL/min/kg.

Take `COCCn1c(Cc2ccc(-c3nc(OCc4ccc(C#N)cc4F)ncc3F)cc2F)nc2ccc(C(=O)O)cc21` [Example 358, 2-(4-(2-((4-cyano-2-fluorobenzyl)oxy)-5-fluoropyrimidin-4-yl)-2-fluorobenzyl)-1-(2-methoxyethyl)-1H-benzo[d]imidazole-6-carboxylic]: the EC50 on GLP-1R came to 33.1 nM. In addition, in data set [1], the “Predicted Hepatic Clearance (Pred. Cl.)” value is 6.5 mL/min/kg.

`N#Cc1ccc(COc2nccc(-c3ccc(Cc4nc5ccc(C(=O)O)nc5n4CC4(CF)CC4)c(F)c3)n2)c(F)c1` [Example 359, 2-(4-(2-((4-cyano-2-fluorobenzyl)oxy)pyrimidin-4-yl)-2-fluorobenzyl)-3-((1-(fluoromethyl)cyclopropyl)methyl)-3H-imidazo[4,5-b]pyridine-5-carboxylic acid]: the EC50 at GLP-1R was 3.09 nM. Moreover, the “Predicted Hepatic Clearance (Pred. Cl.)” value in data set [1] is below 1.83 mL/min/kg.

As to `N#Cc1ccc(COc2nccc(-c3ccc(Cc4nc5c(F)cc(C(=O)O)cc5n4CC4(CF)CC4)c(F)c3)n2)c(F)c1` [Example 360, 2-(4-(2-((4-cyano-2-fluorobenzyl)oxy)pyrimidin-4-yl)-2-fluorobenzyl)-4-fluoro-1-((1-(fluoromethyl)cyclopropyl)methyl)-1H-benzo[d]imidazole-6-carboxylic acid], the EC50 at GLP-1R is 0.94 nM. Also, in data set [1], the “Predicted Hepatic Clearance (Pred. Cl.)” value was below 1.83 mL/min/kg.

`N#Cc1ccc(COc2cccc(-c3ccc(Cc4nc5c(F)cc(C(=O)O)cc5n4CC4(CF)CC4)c(F)c3)n2)c(F)c1` [Example 361, 2-(4-(6-((4-cyano-2-fluorobenzyl)oxy)pyridin-2-yl)-2-fluorobenzyl)-4-fluoro-1-((1-(fluoromethyl)cyclopropyl)methyl)-1H-benzo[d]imidazole-6-carboxylic acid]: the EC50 on GLP-1R turned out to be 0.74 nM. The “Predicted Hepatic Clearance (Pred. Cl.)” value in data set [1] is 2.83 mL/min/kg.

With `COCCn1c(Cc2ccc(-c3cccc(OCc4cccc5c4OCO5)n3)cc2F)nc2ccc(C(=O)O)cc21` [Example 362, 2-(4-(6-(benzo[d][1,3]dioxol-4-ylmethoxy)pyridin-2-yl)-2-fluorobenzyl)-1-(2-methoxyethyl)-1H-benzo[d]imidazole-6-carboxylic acid], the EC50 on GLP-1R worked out at 21.8 nM. Also, the “Predicted Hepatic Clearance (Pred. Cl.)” value in data set [1] was 16.2 mL/min/kg.

With `COCCn1c(Cc2ccc(-c3cccc(OCc4ccc(C#N)c(F)c4OC)n3)cc2F)nc2ccc(C(=O)O)cc21` [Example 363, 2-(4-(6-((4-cyano-3-fluoro-2-methoxybenzyl)oxy)pyridin-2-yl)-2-fluorobenzyl)-1-(2-methoxyethyl)-1H-benzo[d]imidazole-6-carboxylic acid], the EC50 on GLP-1R was found to be 8.96 nM. In addition, the “Predicted Hepatic Clearance (Pred. Cl.)” value in data set [1] is 7.75 mL/min/kg.

Consider `COCCn1c(Cc2ccc(-c3cccc(OCc4ccc(C#N)cc4F)n3)cc2F)nc2ccc(C(=O)O)c(F)c21` [Example 364, 2-(4-(6-((4-cyano-2-fluorobenzyl)oxy)pyridin-2-yl)-2-fluorobenzyl)-7-fluoro-1-(2-methoxyethyl)-1H-benzo[d]imidazole-6-carboxylic acid], for which the EC50 on GLP-1R was determined as 1.76 nM. In addition, the “Predicted Hepatic Clearance (Pred. Cl.)” value in data set [1] is 3.83 mL/min/kg.

Take `CC1(Cn2c(Cc3ccc(-c4cccc(OCc5ccc(C#N)cc5F)n4)cc3F)nc3ccc(C(=O)O)cc32)CCO1` (stereo not shown) [Example 365, 2-(4-(6-((4-cyano-2-fluorobenzyl)oxy)pyridin-2-yl)-2-fluorobenzyl)-1-((2-methyloxetan-2-yl)methyl)-1H-benzo[d]imidazole-6-carboxylic acid]: the EC50 at GLP-1R is 0.6 nM. Further, the “Predicted Hepatic Clearance (Pred. Cl.)” value in data set [1] is 4.67 mL/min/kg.

For `COCCn1c(Cc2ccc(-c3cccc(OCc4ccc(C#N)cc4F)n3)cc2F)nc2ccc(C(=O)O)c(Cl)c21` [Example 366, 7-chloro-2-(4-(6-((4-cyano-2-fluorobenzyl)oxy)pyridin-2-yl)-2-fluorobenzyl)-1-(2-methoxyethyl)-1H-benzo[d]imidazole-6-carboxylic acid], the EC50 at GLP-1R worked out at 20.8 nM. The “Predicted Hepatic Clearance (Pred. Cl.)” value in data set [1] is 5.5 mL/min/kg.

On to `COc1cc(C#N)ccc1COc1cccc(-c2ccc(Cc3nc4ccc(C(=O)O)cc4n3CC3(CF)CC3)c(F)c2)n1` [Example 367, 2-(4-(6-((4-cyano-2-methoxybenzyl)oxy)pyridin-2-yl)-2-fluorobenzyl)-1-((1-(fluoromethyl)cyclopropyl)methyl)-1H-benzo[d]imidazole-6-carboxylic acid], for which the EC50 on GLP-1R is 0.86 nM. In data set [1], the “Predicted Hepatic Clearance (Pred. Cl.)” value was 10.8 mL/min/kg.

On to `COCCn1c(Cc2cc(F)c(-c3ccnc(OCc4ccc(C#N)cc4OC)n3)cc2F)nc2ccc(C(=O)O)cc21` [Example 368, 2-(4-(2-((4-cyano-2-methoxybenzyl)oxy)pyrimidin-4-yl)-2,5-difluorobenzyl)-1-(2-methoxyethyl)-1H-benzo[d]imidazole-6-carboxylic acid], for which the concentration giving a half-maximal response (EC50) on GLP-1R worked out at 0.77 nM. Moreover, the “Predicted Hepatic Clearance (Pred. Cl.)” value in data set [1] was below 1.83 mL/min/kg.

With `N#Cc1ccc(COc2nccc(-c3ccc(Cc4nc5c(F)cc(C(=O)O)cc5n4C[C@@H]4CCO4)cc3F)n2)c(F)c1` [Example 369, (S)-2-(4-(2-((4-cyano-2-fluorobenzyl)oxy)pyrimidin-4-yl)-3-fluorobenzyl)-4-fluoro-1-(oxetan-2-ylmethyl)-1H-benzo[d]imidazole-6-carboxylic acid], at GLP-1R, the EC50 is 0.13 nM. In addition, the “Predicted Hepatic Clearance (Pred. Cl.)” value in data set [1] was 4.33 mL/min/kg.
